ChEMBL document CHEMBL5331078, “1-Benzyloxy-5-phenyltetrazole derivatives highly active against androgen receptor-dependent prostate cancer cells” (Eur J Med Chem, 2023)
Calls of active or inactive are those of the source. The calls are words filed in the database; no cut-off is given here.

Legend:
[1] = Metabolic stability in mouse liver microsomes assessed as intrinsic clearance incubated for 60 mins in presence of NADPH-regenerating system; format: ADME, Microsome; conditions: liver microsomes, read-out: CLH
CWR22R [2] = test: Downregulation of AR-v7 level in human 22Rv1 cells measured for 24 to 36 hrs by Western blot analysis; format: functional, cell-based; conditions: dose 0.5-10 µM, time 24-36 hrs
CWR22R [3] = test: Downregulation of AR-v7 level in human 22Rv1 cells at 0.5 to 10 uM measured after 36 hrs by Western blot analysis; format: functional, cell-based; conditions: dose 0.5-10 µM
CWR22R [4] = test: Downregulation of SKP2 gene expression in human 22Rv1 cells at 1 uM measured after 24 to 36 hrs by RNA sequencing analysis; format: functional, cell-based; conditions: time 24-36 hrs
Papain = biological target: T1, Papain (Carica papaya, UniProt P00784); test: Inhibition of papaya papain protease activity assessed as covalent binding mode of action at 10 uM incubated for 30 mins by absorbance based analysis; conditions: 0.5 h
T1 sequence (P00784 whole entry): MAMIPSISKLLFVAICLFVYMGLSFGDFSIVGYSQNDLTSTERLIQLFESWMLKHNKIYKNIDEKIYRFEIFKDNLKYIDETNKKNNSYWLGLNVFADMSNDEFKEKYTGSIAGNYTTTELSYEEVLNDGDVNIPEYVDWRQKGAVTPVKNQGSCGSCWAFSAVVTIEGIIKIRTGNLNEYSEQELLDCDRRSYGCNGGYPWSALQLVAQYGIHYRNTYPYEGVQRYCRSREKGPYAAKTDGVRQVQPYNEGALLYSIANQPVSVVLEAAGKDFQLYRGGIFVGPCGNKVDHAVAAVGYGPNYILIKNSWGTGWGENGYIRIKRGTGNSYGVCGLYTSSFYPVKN

CWR22R [5] = test: Downregulation of AR genes expression in human 22Rv1 cells at 1 uM measured after 24 to 36 hrs by RNA sequencing analysis; format: functional, cell-based; conditions: time 24-36 hrs
CWR22R [6] = test: Downregulation of GREB1L gene expression in human 22Rv1 cells at 1 uM measured after 24 to 36 hrs by RNA sequencing analysis; format: functional, cell-based; conditions: time 24-36 hrs
[7] = Clearance in rat at 5 mg/kg, iv measured upto 24 hrs by LC-MS/MS analysis; format: ADME, organism-based; conditions: in vivo
CWR22R [8] = test: Downregulation of CHEK1 gene expression in human 22Rv1 cells at 1 uM measured after 24 to 36 hrs by RNA sequencing analysis; format: functional, cell-based; conditions: time 24-36 hrs
[9] = Volume of distribution at steady state in rat at 5 mg/kg, iv measured upto 24 hrs by LC-MS/MS analysis; format: ADME, organism-based; conditions: in vivo, read-out: Vdss
CWR22R [10] = test: Downregulation of GRB10 gene expression in human 22Rv1 cells at 1 uM measured after 24 to 36 hrs by RNA sequencing analysis; format: functional, cell-based; conditions: time 24-36 hrs
CWR22R [11] = test: Downregulation of DDC gene expression in human 22Rv1 cells at 1 uM measured after 24 to 36 hrs by RNA sequencing analysis; format: functional, cell-based; conditions: time 24-36 hrs
[12] = Antiproliferative activity against Ar-luc mouse Adipose stromal cell measured after 3 days by celltiter-glo luminescence assay; format: toxicity, cell-based; conditions: Ar-luc mouse adipose stromal cells
CWR22R [13] = test: Downregulation of androgen receptor in human 22Rv1 cells measured for 24 to 36 hrs by Western blot analysis; format: functional, cell-based; conditions: dose 0.5-10 µM, time 24-36 hrs
CWR22R [14] = test: Downregulation of CDC25A gene expression in human 22Rv1 cells at 1 uM measured after 24 to 36 hrs by RNA sequencing analysis; format: functional, cell-based; conditions: time 24-36 hrs
CWR22R [15] = test: Antitumor activity against human 22Rv1 cells xenografted in NOD-SCID mouse assessed as inhibition of tumor growth at 10 mg/kg/day, ip measured upto 20 days; format: functional, organism-based; conditions: time <= 20.0 day
CWR22R [16] = test: Downregulation of E2F1 gene expression in human 22Rv1 cells at 1 uM measured after 24 to 36 hrs by RNA sequencing analysis; format: functional, cell-based; conditions: time 24-36 hrs
CWR22R [17] = test: Downregulation of RRM2 gene expression in human 22Rv1 cells at 1 uM measured after 24 to 36 hrs by RNA sequencing analysis; format: functional, cell-based; conditions: time 24-36 hrs
[18] = Metabolic stability in mouse liver microsomes assessed as half life incubated for 60 mins in presence of NADPH-regenerating system; format: ADME, Microsome; conditions: liver microsomes
CWR22R [19] = test: Downregulation of CDK2 gene expression in human 22Rv1 cells at 1 uM measured after 24 to 36 hrs by RNA sequencing analysis; format: functional, cell-based; conditions: time 24-36 hrs
[20] = Toxicity in NOD-SCID mouse assessed as effect on body weight loss at 10 mg/kg/day, ip measured upto 20 days; format: organism-based; conditions: in vivo, 480 h, time < 20 day
CWR22R [21] = test: Downregulation of GINS1 gene expression in human 22Rv1 cells at 1 uM measured after 24 to 36 hrs by RNA sequencing analysis; format: functional, cell-based; conditions: time 24-36 hrs
[22] = C0 in rat at 5 mg/kg, iv measured upto 24 hrs by LC-MS/MS analysis; format: ADME, organism-based; conditions: in vivo
[23] = Half life in rat at 5 mg/kg, iv measured upto 24 hrs by LC-MS/MS analysis; format: ADME, organism-based; conditions: in vivo
PC-3 = test: Antiproliferative activity against human PC-3 cells measured after 3 days by celltiter-glo luminescence assay; format: functional, cell-based; conditions: PC-3, 72 h
CWR22R [24] = test: Downregulation of Androgen receptor level in human 22Rv1 cells at 0.5 to 10 uM measured after 36 hrs by Western blot analysis; format: functional, cell-based; conditions: dose 0.5-10 µM
[25] = MRT (0 to infinity) in rat at 5 mg/kg, iv measured upto 24 hrs by LC-MS/MS analysis; format: ADME, organism-based; conditions: in vivo
[26] = Kinetic solubility of the compound in 0.01 M HCl at pH 2 after 30 mins by nephelometry; format: physicochemical; conditions: read-out: Kinetic_solubility
CWR22R [27] = test: Downregulation of CDC7 gene expression in human 22Rv1 cells at 1 uM measured after 24 to 36 hrs by RNA sequencing analysis; format: functional, cell-based; conditions: time 24-36 hrs
CWR22R [28] = test: Downregulation of PCNA gene expression in human 22Rv1 cells at 1 uM measured after 24 to 36 hrs by RNA sequencing analysis; format: functional, cell-based; conditions: time 24-36 hrs
CWR22R [29] = test: Downregulation of UHRF1 gene expression in human 22Rv1 cells at 1 uM measured after 24 to 36 hrs by RNA sequencing analysis; format: functional, cell-based; conditions: time 24-36 hrs
CWR22R [30] = test: Downregulation of MYB gene expression in human 22Rv1 cells at 1 uM measured after 24 to 36 hrs by RNA sequencing analysis; format: functional, cell-based; conditions: time 24-36 hrs
CWR22R [31] = test: Downregulation of DNMT1 gene expression in human 22Rv1 cells at 1 uM measured after 24 to 36 hrs by RNA sequencing analysis; format: functional, cell-based; conditions: time 24-36 hrs
CWR22R [32] = test: Downregulation of FEN1 gene expression in human 22Rv1 cells at 1 uM measured after 24 to 36 hrs by RNA sequencing analysis; format: functional, cell-based; conditions: time 24-36 hrs
CWR22R [33] = test: Downregulation of POLE2 gene expression in human 22Rv1 cells at 1 uM measured after 24 to 36 hrs by RNA sequencing analysis; format: functional, cell-based; conditions: time 24-36 hrs
[34] = Kinetic solubility of the compound in phosphate buffer at pH 6.5 after 30 mins by nephelometry; format: physicochemical; conditions: read-out: Kinetic_solubility
CWR22R [35] = test: Downregulation of BRCA1 gene expression in human 22Rv1 cells at 1 uM measured after 24 to 36 hrs by RNA sequencing analysis; format: functional, cell-based; conditions: time 24-36 hrs
[36] = AUC (0 to infinity) in rat at 5 mg/kg, iv measured upto 24 hrs by LC-MS/MS analysis; format: ADME, organism-based; design: time < 24 hrs, dose 5 mg/kg, route iv; conditions: in vivo
CWR22R [37] = test: Downregulation of MCM10 gene expression in human 22Rv1 cells at 1 uM measured after 24 to 36 hrs by RNA sequencing analysis; format: functional, cell-based; conditions: time 24-36 hrs

Q: For `Clc1ccc(COn2nnnc2-c2ccc(Cl)cc2)cc1`, which microsomal CLint [1] is on record?
A: Its microsomal CLint is 21 µL/min/mg.

Q: And the Activity (CWR22R [2])?
A: Its Activity is “Dose-Dependent Effect”.

Q: And the Activity (CWR22R [3])?
A: The Activity was “Active”.

Q: What about the Activity (CWR22R [4]) of the same compound?
A: The Activity was “Active”.

Q: What about the “inhibition (INH)” value (Papain) of the same compound?
A: Its value is “Not Active”.

Q: And the Activity (CWR22R [5])?
A: Its Activity is “Active”.

Q: And the Activity (CWR22R [6])?
A: The Activity was “Active”.

Q: And the clearance [7]?
A: The clearance was 75.9 mL/min/kg.

Q: And the Activity (CWR22R [8])?
A: Its Activity is “Active”.

Q: What about the Vd [9] of the same compound?
A: Its Vd is 1.53 L/kg.

Q: And the Activity (CWR22R [10])?
A: Its Activity is “Active”.

Q: And the Activity (CWR22R [11])?
A: The Activity was “Active”.

Q: What about the IC50 at 3 days [12] of the same compound?
A: The IC50 at 3 days was over 100 µM.

Q: And the Activity (CWR22R [13])?
A: The Activity was “Dose-Dependent Effect”.

Q: What about the Activity (CWR22R [14]) of the same compound?
A: The Activity was “Active”.

Q: And the Activity (CWR22R [15])?
A: The Activity was “Active”.

Q: What about the Activity (CWR22R [16]) of the same compound?
A: Its Activity is “Active”.

Q: What about the Activity (CWR22R [17]) of the same compound?
A: Its Activity is “Active”.

Q: What about the half-life [18] of the same compound?
A: Its half-life is 21 min.

Q: What about the Activity (CWR22R [19]) of the same compound?
A: Its Activity is “Active”.

Q: And the Activity [20]?
A: The Activity was “Non-Toxic”.

Q: And the Activity (CWR22R [21])?
A: Its Activity is “Active”.

Q: And the C0 at 24 h [22]?
A: The C0 at 24 h was 5480 ng/mL.

Q: And the half-life [23]?
A: Its half-life is 55.1 min.

Q: What about the IC50 (PC-3) of the same compound?
A: The IC50 was over 100 µM.

Q: What about the Activity (CWR22R [24]) of the same compound?
A: Its Activity is “Active”.

Q: And the MRT inf [25]?
A: Its MRT inf is 20.2 min.

Q: And the solubility kinetic at 0.5 h [26]?
A: Its solubility kinetic at 0.5 h is under 1.6 µg/mL.

Q: And the Activity (CWR22R [27])?
A: The Activity was “Active”.

Q: What about the Activity (CWR22R [28]) of the same compound?
A: The Activity was “Active”.

Q: And the Activity (CWR22R [29])?
A: The Activity was “Active”.

Q: What about the Activity (CWR22R [30]) of the same compound?
A: Its Activity is “Active”.

Q: What about the Activity (CWR22R [31]) of the same compound?
A: Its Activity is “Active”.

Q: And the Activity (CWR22R [32])?
A: Its Activity is “Active”.

Q: And the Activity (CWR22R [33])?
A: The Activity was “Active”.

Q: What about the solubility kinetic at 0.5 h [34] of the same compound?
A: The solubility kinetic at 0.5 h was under 1.6 µg/mL.

Q: And the Activity (CWR22R [35])?
A: The Activity was “Active”.

Q: What about the AUC(0-inf) [36] of the same compound?
A: Its AUC(0-inf) is 1100 ng·h/mL.

Q: And the Activity (CWR22R [37])?
A: The Activity was “Active”.
